Data: patent US20250186379A1, “METHODS AND AGENTS FOR DECREASING INSULIN RESISTANCE” (Whitehead Institute for Biomedical Research, priority 2021, published 2025)

Legend:
IR-FKBP condensates = assay: tc-PALM of IR-Dendra2-FKBP condensate lifetime in HepG2 cells; format: cell-based, human; details: HepG2 cells expressing IR-FKBP; 5 μM AP1903 16 hours vs DMSO
Text: A CRISPR/Cas9 system was used to generate genetically modified HepG2 cell lines. Target sequences were cloned into a plasmid containing sgRNA backbone, a codon-optimized version of Cas9 and mCherry. For IR targeting, two Cas9 gRNAs were used. For the generation of the IR-mEGFP, IR-Dendra2, and IR-Dendra2-FKBP endogenously tagged lines, homology directed repair templates were cloned into pUC19 using NEBuilder HiFi DNA Assembly Master Mix (NEB, E2621S). For IR-mEGFP and IR-Dendra2 cell lines, the homology repair template consisted of mEGFP or Dendra2 cDNA sequence flanked on either side by 800 bp homology arms amplified from HepG2 genomic DNA using PCR (FIG. 27A). […]
Widefield, live-cell, super-resolution imaging was performed in a photo-activation localization microscopy (PALM) approach using a Nikon Eclipse Ti microscope with a 100× oil immersion objective. […] During each imaging cycle, a 2400-frame video stream including a (256 pixel)^2 region of interest (ROI) was recorded in 20 Hz acquisition rate with the EM-gain setting as 1000 on an Andor iXon Ultra 897 EMCCD. […]
Temporal clustering: For each spatial cluster, time-correlated PALM (tc-PALM) analysis was performed along the time axis to extract the truly colocalized, time-correlated multi-molecule bursting events. […] More details about the quantitative validations and statistics of tc-PALM analysis can be found in FIG. 30.

IR-FKBP = assay: Western blotting and imaging of IR activity in HepG2 cells expressing IR-GFP-FKBP; format: cell-based, human; details: 5 μM AP1903 16 hours vs DMSO
Text: For experiments that forced reduction in IR condensate dynamics, the vector used in this assay was modified from pJH135_pb_MCPx2_mCherry_rTTA vector^11. IR-mEGFP-FKBP, which consists of the insulin receptor cDNA, flexible linker 1, mEGFP, flexible linker 2, and four copies of FKBP, was cloned into PmeI and NheI digested pJH135_pb_MCPx2_mCherry_rTTA using Gibson cloning by following the manufacturer's instructions (NEB, E2621S). This vector is called JP204 pb_TetON_INSR_2A_GFP_Dmbr4.
For experiments that forced reduction in IR condensate dynamics, 1×10^5 cells/cm^2 HepG2 cells were transfected with 0.07 μg/cm^2 pJP204_pb_TetON_INSR_2A_GFP_Dmbr4 using Lipofectamine 3000 (Invitrogen, L3000). On day 2, the cells were treated with 100 ng/ml doxycycline (Sigma, D9891-5G). […]
Cells were washed with ice-cold PBS (Life Technologies, AM9625) and lysed in Cell Lytic M (Sigma Aldrich C2978) supplemented with protease and phosphatase inhibitors (Sigma Aldrich, 11873580001 and 4906837001) directly on the wells. […] Super natant was collected and protein concentration was determined using a BCA Protein Assay Kit (Life Technologies, 23250) according to the manufacturer's instructions. […] Immunoblot quantification was performed using the “analyze gel” tool on Fiji/ImageJ v2.1.0/153c.
To quantify pIRS1 fluorescent signal in IR puncta/condensates manually, Airyscan images were opened on Fiji as composite images. […]

CC[C@H](C(=O)N1CCCC[C@H]1C(=O)O[C@H](CCc1ccc(OC)c(OC)c1)c1cccc(OCC(=O)NCCNC(=O)COc2cccc([C@@H](CCc3ccc(OC)c(OC)c3)OC(=O)[C@@H]3CCCCN3C(=O)[C@@H](CC)c3cc(OC)c(OC)c(OC)c3)c2)c1)c1cc(OC)c(OC)c(OC)c1 [AP1903]
lifetime of IR condensates (IR-FKBP condensates): significantly increased the lifetime of IR condensates | IR functional activity (pIR-FKBP, pIRS1) (IR-FKBP): less functionally active
